Experiments:
Test in all cases: Test C preemergence
blackgrass = assay type: in vivo, Alopecurus myosuroides
Procedure, shortened: (§1)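 Visual ratings on a 0–100 scale (100 = complete control) were made versus untreated controls after 13–15 greenhouse days. Chemicals in a surfactant-containing non-phytotoxic solvent were applied either preemergence to seeds in loam–sand soil or postemergence to 1- to 4-leaf plants 2–18 cm tall.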

soybean = assay type: in vivo, Glycine max
Procedure, shortened: as §1

yellow nutsedge = assay type: in vivo, Cyperus esculentus
Procedure, shortened: as §1

barnyardgrass = assay type: in vivo, Echinochloa crus-galli
Procedure, shortened: as §1

velvetleaf = assay type: in vivo, Abutilon theophrasti
Procedure, shortened: as §1

lambsquarters = assay type: in vivo, Chenopodium album
Procedure, shortened: as §1

johnsongrass = assay type: in vivo, Sorghum halepense
Procedure, shortened: as §1

Italian ryegrass = assay type: in vivo, Lolium multiflorum
Procedure, shortened: as §1

pigweed = assay type: in vivo, Amaranthus retroflexus
Procedure, shortened: as §1

morningglory = assay type: in vivo, Ipomoea coccinea
Procedure, shortened: as §1

giant foxtail = assay type: in vivo, Setaria faberii
Procedure, shortened: as §1

large (Lg) crabgrass = assay type: in vivo, Digitaria sanguinalis
Procedure, shortened: as §1

waterhemp = assay type: in vivo, Amaranthus rudis
Procedure, shortened: as §1

oilseed rape = assay type: in vivo, Brassica napus
Procedure, shortened: as §1

[1] = 16 g ai/ha, preemergence, scale 0 to 100 (0 no effect, 100 complete control)
[2] = 31 g ai/ha, preemergence, scale 0 to 100 (0 no effect, 100 complete control)
[3] = 125 g ai/ha, preemergence, scale 0 (no effect) to 100 (complete control)
[4] = Preemergence, 62 g ai/ha, scale 0 to 100, 0 no effect, 100 complete control

N#Cc1cccc(Oc2ncc(Cl)cn2)c1-n1cc(OCC(F)(F)F)cn1 [Compound 274, 3-[(5-chloro-2-pyrimidinyl)oxy]-2-[4-(2,2,2-trifluoroethoxy)-1H-pyrazol-1-yl]benzonitrile]
pest or weed control at 16 g/ha (blackgrass; Alopecurus myosuroides, pre-emergence, 16 g ai/ha, preemergence, scale 0 to 100 (0 no effect, 100 complete control), read-out: Blackgrass plant response rating): 50%
pest or weed control at 125 g/ha (blackgrass; Alopecurus myosuroides, pre-emergence, 125 g ai/ha, preemergence, scale 0 (no effect) to 100 (complete control), read-out: Blackgrass plant response rating): 90%
pest or weed control at 62 g/ha (blackgrass; Alopecurus myosuroides, pre-emergence, Preemergence, 62 g ai/ha, scale 0 to 100, 0 no effect, 100 complete control, read-out: Plant response rating, Blackgrass): 90%
plant injury at 16 g/ha (soybean; Glycine max, pre-emergence, 16 g ai/ha, preemergence, scale 0 to 100 (0 no effect, 100 complete control), read-out: Soybean plant response rating): 35%
plant injury at 125 g/ha (soybean; Glycine max, pre-emergence, 125 g ai/ha, preemergence, scale 0 (no effect) to 100 (complete control), read-out: Soybean plant response rating): 98%
plant injury at 62 g/ha (soybean; Glycine max, pre-emergence, Preemergence, 62 g ai/ha, scale 0 to 100, 0 no effect, 100 complete control, read-out: Plant response rating, Soybean): 95%
pest or weed control at 16 g/ha (yellow nutsedge; Cyperus, pre-emergence, 16 g ai/ha, preemergence, scale 0 to 100 (0 no effect, 100 complete control), read-out: Nutsedge, Yellow plant response rating): 20%
pest or weed control at 125 g/ha (yellow nutsedge; Cyperus, pre-emergence, 125 g ai/ha, preemergence, scale 0 (no effect) to 100 (complete control), read-out: Nutsedge, Yellow plant response rating): 95%
pest or weed control at 62 g/ha (yellow nutsedge; Cyperus, pre-emergence, Preemergence, 62 g ai/ha, scale 0 to 100, 0 no effect, 100 complete control, read-out: Plant response rating, Nutsedge, Yellow): 85%
pest or weed control at 16 g/ha (barnyardgrass; Echinochloa crus-galli, pre-emergence, 16 g ai/ha, preemergence, scale 0 to 100 (0 no effect, 100 complete control), read-out: Barnyardgrass plant response rating): 90%
pest or weed control at 125 g/ha (barnyardgrass; Echinochloa crus-galli, pre-emergence, 125 g ai/ha, preemergence, scale 0 (no effect) to 100 (complete control), read-out: Barnyardgrass plant response rating): 100%
pest or weed control at 62 g/ha (barnyardgrass; Echinochloa crus-galli, pre-emergence, Preemergence, 62 g ai/ha, scale 0 to 100, 0 no effect, 100 complete control, read-out: Plant response rating, Barnyardgrass): 100%
pest or weed control at 16 g/ha (velvetleaf; Abutilon theophrasti, pre-emergence, 16 g ai/ha, preemergence, scale 0 to 100 (0 no effect, 100 complete control), read-out: Velvetleaf plant response rating): 80%
pest or weed control at 125 g/ha (velvetleaf; Abutilon theophrasti, pre-emergence, 125 g ai/ha, preemergence, scale 0 (no effect) to 100 (complete control), read-out: Velvetleaf plant response rating): 100%
pest or weed control at 62 g/ha (velvetleaf; Abutilon theophrasti, pre-emergence, Preemergence, 62 g ai/ha, scale 0 to 100, 0 no effect, 100 complete control, read-out: Plant response rating, Velvetleaf): 100%
pest or weed control at 16 g/ha (lambsquarters; Chenopodium album, pre-emergence, 16 g ai/ha, preemergence, scale 0 to 100 (0 no effect, 100 complete control), read-out: Lambsquarters plant response rating): 100%
pest or weed control at 125 g/ha (lambsquarters; Chenopodium album, pre-emergence, 125 g ai/ha, preemergence, scale 0 (no effect) to 100 (complete control), read-out: Lambsquarters plant response rating): 98%
pest or weed control at 62 g/ha (lambsquarters; Chenopodium album, pre-emergence, Preemergence, 62 g ai/ha, scale 0 to 100, 0 no effect, 100 complete control, read-out: Plant response rating, Lambsquarters): 100%
pest or weed control at 16 g/ha (johnsongrass; Sorghum halepense, pre-emergence, 16 g ai/ha, preemergence, scale 0 to 100 (0 no effect, 100 complete control), read-out: Johnsongrass plant response rating): 10%
pest or weed control at 125 g/ha (johnsongrass; Sorghum halepense, pre-emergence, 125 g ai/ha, preemergence, scale 0 (no effect) to 100 (complete control), read-out: Johnsongrass plant response rating): 98%
pest or weed control at 62 g/ha (johnsongrass; Sorghum halepense, pre-emergence, Preemergence, 62 g ai/ha, scale 0 to 100, 0 no effect, 100 complete control, read-out: Plant response rating, Johnsongrass): 95%
pest or weed control at 16 g/ha (Italian ryegrass; Lolium multiflorum, pre-emergence, 16 g ai/ha, preemergence, scale 0 to 100 (0 no effect, 100 complete control), read-out: Ryegrass, Italian plant response rating): 25%
pest or weed control at 125 g/ha (Italian ryegrass; Lolium multiflorum, pre-emergence, 125 g ai/ha, preemergence, scale 0 (no effect) to 100 (complete control), read-out: Ryegrass, Italian plant response rating): 90%
pest or weed control at 62 g/ha (Italian ryegrass; Lolium multiflorum, pre-emergence, Preemergence, 62 g ai/ha, scale 0 to 100, 0 no effect, 100 complete control, read-out: Plant response rating, Ryegrass, Italian): 90%
pest or weed control at 16 g/ha (pigweed; Amaranthus retroflexus, pre-emergence, 16 g ai/ha, preemergence, scale 0 to 100 (0 no effect, 100 complete control), read-out: Pigweed plant response rating): 100%
pest or weed control at 125 g/ha (pigweed; Amaranthus retroflexus, pre-emergence, 125 g ai/ha, preemergence, scale 0 (no effect) to 100 (complete control), read-out: Pigweed plant response rating): 100%
pest or weed control at 62 g/ha (pigweed; Amaranthus retroflexus, pre-emergence, Preemergence, 62 g ai/ha, scale 0 to 100, 0 no effect, 100 complete control, read-out: Plant response rating, Pigweed): 100%
pest or weed control at 16 g/ha (morningglory; Ipomoea, pre-emergence, 16 g ai/ha, preemergence, scale 0 to 100 (0 no effect, 100 complete control), read-out: Morningglory plant response rating): 35%
pest or weed control at 125 g/ha (morningglory; Ipomoea, pre-emergence, 125 g ai/ha, preemergence, scale 0 (no effect) to 100 (complete control), read-out: Morningglory plant response rating): 100%
pest or weed control at 62 g/ha (morningglory; Ipomoea, pre-emergence, Preemergence, 62 g ai/ha, scale 0 to 100, 0 no effect, 100 complete control, read-out: Plant response rating, Morningglory): 100%
pest or weed control at 16 g/ha (giant foxtail; Setaria faberi, pre-emergence, 16 g ai/ha, preemergence, scale 0 to 100 (0 no effect, 100 complete control), read-out: Foxtail, Giant plant response rating): 98%
pest or weed control at 125 g/ha (giant foxtail; Setaria faberi, pre-emergence, 125 g ai/ha, preemergence, scale 0 (no effect) to 100 (complete control), read-out: Foxtail, Giant plant response rating): 100%
pest or weed control at 62 g/ha (giant foxtail; Setaria faberi, pre-emergence, Preemergence, 62 g ai/ha, scale 0 to 100, 0 no effect, 100 complete control, read-out: Plant response rating, Foxtail, Giant): 100%
pest or weed control at 16 g/ha (large (Lg) crabgrass; Digitaria sanguinalis, pre-emergence, 16 g ai/ha, preemergence, scale 0 to 100 (0 no effect, 100 complete control), read-out: Crabgrass, Large plant response rating): 100%
pest or weed control at 125 g/ha (large (Lg) crabgrass; Digitaria sanguinalis, pre-emergence, 125 g ai/ha, preemergence, scale 0 (no effect) to 100 (complete control), read-out: Crabgrass, Large plant response rating): 100%
pest or weed control at 62 g/ha (large (Lg) crabgrass; Digitaria sanguinalis, pre-emergence, Preemergence, 62 g ai/ha, scale 0 to 100, 0 no effect, 100 complete control, read-out: Plant response rating, Crabgrass, Large): 100%
pest or weed control at 16 g/ha (waterhemp; Amaranthus tuberculatus, pre-emergence, 16 g ai/ha, preemergence, scale 0 to 100 (0 no effect, 100 complete control), read-out: Waterhemp plant response rating): 100%
pest or weed control at 125 g/ha (waterhemp; Amaranthus tuberculatus, pre-emergence, 125 g ai/ha, preemergence, scale 0 (no effect) to 100 (complete control), read-out: Waterhemp plant response rating): 100%
pest or weed control at 62 g/ha (waterhemp; Amaranthus tuberculatus, pre-emergence, Preemergence, 62 g ai/ha, scale 0 to 100, 0 no effect, 100 complete control, read-out: Plant response rating, Waterhemp): 100%
plant injury at 16 g/ha (oilseed rape; Brassica napus, pre-emergence, 16 g ai/ha, preemergence, scale 0 to 100 (0 no effect, 100 complete control), read-out: Oilseed Rape plant response rating): 80%
plant injury at 125 g/ha (oilseed rape; Brassica napus, pre-emergence, 125 g ai/ha, preemergence, scale 0 (no effect) to 100 (complete control), read-out: Oilseed Rape plant response rating): 95%
plant injury at 62 g/ha (oilseed rape; Brassica napus, pre-emergence, Preemergence, 62 g ai/ha, scale 0 to 100, 0 no effect, 100 complete control, read-out: Plant response rating, Oilseed Rape): 95%

NC(=S)c1cccc(Oc2ncc(Cl)cn2)c1-n1cc(Cl)cn1 [Compound 292]
Blackgrass plant response rating (blackgrass; [1]): 0
Blackgrass plant response rating (blackgrass; [2]): 70
Blackgrass plant response rating (blackgrass; [3]): 90
Plant response rating, Blackgrass (blackgrass; [4]): 90
Soybean plant response rating (soybean; [1]): 5
Soybean plant response rating (soybean; [2]): 40
Soybean plant response rating (soybean; [3]): 90
Plant response rating, Soybean (soybean; [4]): 85
Nutsedge, Yellow plant response rating (yellow nutsedge; [1]): 0
Nutsedge, Yellow plant response rating (yellow nutsedge; [2]): 0
Nutsedge, Yellow plant response rating (yellow nutsedge; [3]): 35
Plant response rating, Nutsedge, Yellow (yellow nutsedge; [4]): 0
Barnyardgrass plant response rating (barnyardgrass; [1]): 0
Barnyardgrass plant response rating (barnyardgrass; [2]): 15
Barnyardgrass plant response rating (barnyardgrass; [3]): 100
Plant response rating, Barnyardgrass (barnyardgrass; [4]): 85
Velvetleaf plant response rating (velvetleaf; [1]): 15
Velvetleaf plant response rating (velvetleaf; [2]): 35
Velvetleaf plant response rating (velvetleaf; [3]): 100
Plant response rating, Velvetleaf (velvetleaf; [4]): 98
Lambsquarters plant response rating (lambsquarters; [1]): 35
Lambsquarters plant response rating (lambsquarters; [2]): 80
Lambsquarters plant response rating (lambsquarters; [3]): 100
Plant response rating, Lambsquarters (lambsquarters; [4]): 98
Johnsongrass plant response rating (johnsongrass; [1]): 0
Johnsongrass plant response rating (johnsongrass; [2]): 5
Johnsongrass plant response rating (johnsongrass; [3]): 85
Plant response rating, Johnsongrass (johnsongrass; [4]): 40
Ryegrass, Italian plant response rating (Italian ryegrass; [1]): 0
Ryegrass, Italian plant response rating (Italian ryegrass; [2]): 0
Ryegrass, Italian plant response rating (Italian ryegrass; [3]): 85
Plant response rating, Ryegrass, Italian (Italian ryegrass; [4]): 10
Pigweed plant response rating (pigweed; [1]): 100
Pigweed plant response rating (pigweed; [2]): 100
Pigweed plant response rating (pigweed; [3]): 100
Plant response rating, Pigweed (pigweed; [4]): 100
Morningglory plant response rating (morningglory; [1]): 25
Morningglory plant response rating (morningglory; [2]): 30
Morningglory plant response rating (morningglory; [3]): 70
Plant response rating, Morningglory (morningglory; [4]): 35
Foxtail, Giant plant response rating (giant foxtail; [1]): 45
Foxtail, Giant plant response rating (giant foxtail; [2]): 100
Foxtail, Giant plant response rating (giant foxtail; [3]): 100
Plant response rating, Foxtail, Giant (giant foxtail; [4]): 100
Crabgrass, Large plant response rating (large (Lg) crabgrass; [1]): 100
Crabgrass, Large plant response rating (large (Lg) crabgrass; [2]): 100
Crabgrass, Large plant response rating (large (Lg) crabgrass; [3]): 100
Plant response rating, Crabgrass, Large (large (Lg) crabgrass; [4]): 100
Waterhemp plant response rating (waterhemp; [1]): 100
Waterhemp plant response rating (waterhemp; [2]): 100
Waterhemp plant response rating (waterhemp; [3]): 100
Plant response rating, Waterhemp (waterhemp; [4]): 100
Oilseed Rape plant response rating (oilseed rape; [1]): 70
Oilseed Rape plant response rating (oilseed rape; [2]): 80
Oilseed Rape plant response rating (oilseed rape; [3]): 98
Plant response rating, Oilseed Rape (oilseed rape; [4]): 98

Source: patent US9695155B2, “Herbicidal substituted pyrimidinyloxy benzene compounds” (E. I. DU PONT DE NEMOURS AND COMPANY, priority 2013, dated 2017)
